# Like-named read-outs stand apart in the source and are kept apart here.
# Assays:
# [1] = test system: KRAS downstream signaling proteins in wild type KRAS; assay: Downstream signaling proteins, wild type KRAS (protein and gene expression analysis); type: cell-based
# RAS = assay: Effect on RAS degradation (GSK3β, Wnt/β-catenin pathway proteins); type: cell-based
# [2] = test system: miR-30c and miR-21 in mutant KRAS; assay: miR-30c and miR-21 and tumor suppressor gene expression (microarray analysis); type: cell-based
# Text: The effect of Compound 1 on the expression of miR 30c and miR-21 in mutant form of KRAS and Wild type was observed. […] Based on these observation our molecules targets miRNA in KRAS mutant model which acts as an attractive therapeutic tools in cancer medicine, because these miRNA that can silence multiple gene(s) and therefore switch off different pathways simultaneously, which is not possible with protein-based drugs and other covalent inhibitor of different KRAS mutant form, and eventually Compound 1 has no toxicity or off target effects compared to other standard drugs
# Pharmacokinetics in mice = type: in vivo
# [3] = Crossing blood-brain barrier: pharmacokinetics in brain regions; type: in vivo; set-up: AUC0-t_D: concentration or dose not given beside the values
# [4] = test system: mutant-KRAS-driven cancer; assay: In vivo tumor model (PDTX animal model); set-up: species or system mice
# Text: FIG. 18 depicts regression of all mutant-KRAS-driven cancer in PDTX Animal Model.
# Compound 1 was also found to inhibit downstream signaling.
# [5] = test system: cancer cells expressing KRAS mutations; assay: Cell viability assay in cancer cells expressing KRAS mutations; type: cell-based
# Text: It was further examined that if Compound 1 can also induce cytotoxic effects on other cancer cells expressing KRAS mutations, a panel of cancer cell lines which harbor KRAS G12D, G12V and G12C point mutations respectively, were selected and used with KRAS wild-type (WT) controls.
# The cytotoxicity of Compound 1 was initially evaluated in a panel of 30+ cell lines with wild-type (WT) KRAS or known KRAS mutations.
# wild-type (WT) KRAS = assay: RAS activation assay, GTP-KRAS in wild-type cells; type: cell-based
# Text: Actually, mutant KRAS would interfere the balance between GEFs and GAPs, resulting in locking in the active GTP-bound KRAS state and aberrant stimulation of its downstream signaling.
# Significant increased expression of Immune cells has been observed in Compound 1 treatment.
# [6] = test system: KRAS G12C mutant cell lines; assay: Cytotoxic effect on NCI-Panel of 10 KRAS G12C mutant cell lines; type: cell-based
# KRAS = KRAS (Homo sapiens, UniProt P01116); assay: Binding to KRAS in vitro
# KRAS, sequence (P01116 1-188 isoform P01116-2): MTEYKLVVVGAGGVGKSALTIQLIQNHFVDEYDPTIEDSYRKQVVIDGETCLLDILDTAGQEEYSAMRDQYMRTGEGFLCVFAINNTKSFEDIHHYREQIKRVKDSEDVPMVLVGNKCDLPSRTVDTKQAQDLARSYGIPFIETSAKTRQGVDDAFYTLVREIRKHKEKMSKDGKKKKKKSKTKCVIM
# Text: (§1) The present invention is aimed to invent powerful, therapeutic small molecules that could target mutant KRAS on its active sites. Here we identified a small molecule, compound I, that binds the GTP/GDP-binding pocket of KRAS. For this purpose we studied a strong correlation of measurement among a larger panel of tumor cell lines expressing KRAS mutation and analyses the potency to inhibit the tumor cell growth activated RAS. […] Therefore, compound I may be considered as a potential KRAS inhibitor for treatment of cancer cells carrying KRAS oncogene.
# From the above biological examples it is clearly inferred that the Compound 1 as a new class of KRAS that selectively targets the GTP/GDP binding pocket. […] Compound 1 to 5-induced hyperactivation of mutant KRAS facilitates apoptotic cell death in mutant KRAS cancer cells. Combining the results with detailed structural analysis, we are able to describe key ligand-receptor interactions that correlate with activity. Thus, showing that our screening techniques were very successful at generating KRAS binders that have effects on signaling in cells. […] Therefore, compound Compound 1 is a promising hit for the development of novel non-covalent KRAS inhibitors. The development of this new class of anticancer drug offers a potentially effective strategy for the treatment of cancer with KRAS mutation and/or mutant KRAS-driven cancer. […]
# p53 = assay: Expression of p53 and apoptosis-related genes (qRT-PCR); type: cell-based; details: cancer cells
# Method: FIG. 11 depicts compound I Targeting p53 (mRNA levels of p53, Puma, and Noxa in cells at 6 hours after compound I treatment. mRNA levels were quantified by qRT-PCR. Data were normalized to GAPDH expression and plotted relative to cells treated with DMSO as control)
# BRCA 1/2-deficient cells = assay: Toxicity to BRCA-deficient cells; type: cell-based; details: including cisplatin-resistant ones
# tumor xenograft = assay: Nude mouse xenograft models (EGFR/HER2 study); type: in vivo
# Text: The activity of Compound 1 on various mutated EGFRs, HER2, and HER4 were examined. MTT assays, flow cytometry, and Western blotting were used to examine the effects of Compound 1 on with different genetic characteristics and relevant molecular mechanisms. Nude mouse xenograft models with cells were used to evaluate the in vim anti-tumor activity of Compound 1. […] Compound 1 blocked EGFR phosphorylation, thereby down regulating downstream PI3/AKT and MAPK/ERK signaling pathways and inducing G0/G1 arrest in different cells. […] Due to compromised homologous recombination (HR) repair, BRCA 1-and BRCA 2-mutated tumours accumulate DNA damage and genomic rearrangements conducive of tumour progression.
# PD-L1 = PD-L1 expression; type: cell-based
# Text: as §1
structure (smiles),measurement,setting,value
CCCCc1ncc(C(=O)C2CC=C(C(N)=O)N2)cc1C(=O)OCC (stereo not shown) [Compound 1],"expression of KRAS downstream signaling proteins MEK, RAF and PI3K",[1],has not altered the expression
same,pERK level,[1]; control 1.42 ± 0.069,1.46 ± 0.23
same,pCRAF level,[1]; control 1.52 ± 0.025,1.42 ± 0.25
same,pP13K level,[1]; control 1.85 ± 0.32,1.62 ± 0.63
same,pAKt level,[1]; control 1.89 ± 0.63,1.72 ± 0.14
same,pMEK level,[1]; control 1.96 ± 0.22,1.85 ± 0.32
same,Axin level,RAS; control 0.25 ± 0.05,1.96 ± 0.02
same,APC level,RAS; control 0.63 ± 0.03,0.96 ± 0.44
same,GSk3β level,RAS; control 0.69 ± 0.02,1.89 ± 0.23
same,Beta Catenin level,RAS; control 1.32 ± 0.09,0.66 ± 0.09
same,RAS level,RAS; control 1.96 ± 0.06,0.25 ± 0.03
same,RAS degradation,RAS; via GSK3β phosphorylation,degrades the RAS
same,miR21 expression,[2]; control 0.72 ± 0.02,1.58 ± 0.32
same,miR30c expression,[2]; control 0.96 ± 0.025,1.89 ± 0.25
same,NF1 expression,[2]; control 1.56 ± 0.06,1.21 ± 0.033
same,BID expression,[2]; control 1.56 ± 0.36,0.32 ± 0.012
same,RASA1 expression,[2]; control 1.69 ± 0.36,0.32 ± 0.031
same,expression of miR 30c and miR-21,"[2]; mutant form of KRAS, microarray analysis",significantly reduced
same,T1/2,Pharmacokinetics in mice,T1/2 = 5.8 h (mice)
same,Cmax,Pharmacokinetics in mice; 10 mg/kg b.wt.,Cmax = 2.6 μg/mL (10 mg/kg b.wt. mice)
same,T max,Pharmacokinetics in mice; 10 mg/kg b.wt.,"T max = 2 h (mice 10 mg/kg, b.wt;)"
same,AUC0-t_D,[3]; Brainstem,"85.63 ± 17.43 h × ng/g/mg, h × ng/mL/mg"
same,MRTQ-t,[3]; Brainstem,5.89 ± 0.34 h
same,Tmax,[3]; Brainstem,1.35 ± 0.33 h
same,T½,[3]; Brainstem,1.81 ± 0.23 h
same,AUC0-t_D,[3]; Cortex,"152.08 ± 5.25 h × ng/g/mg, h × ng/mL/mg"
same,MRTQ-t,[3]; Cortex,6.23 ± 0.65 h
same,Tmax,[3]; Cortex,1.14 ± 0.09 h
same,T½,[3]; Cortex,5.86 ± 2.91 h
same,AUC0-t_D,[3]; Hippocampus,"58.20 ± 15.36 h × ng/g/mg, h × ng/mL/mg"
same,MRTQ-t,[3]; Hippocampus,5.18 ± 0.51 h
same,Tmax,[3]; Hippocampus,1.25 ± 1.08 h
same,T½,[3]; Hippocampus,1.19 ± 0.22 h
same,AUC0-t_D,[3]; Hypothalamus,"59.10 ± 5.06 h × ng/g/mg, h × ng/mL/mg"
same,MRTQ-t,[3]; Hypothalamus,5.25 ± 0.60 h
same,Tmax,[3]; Hypothalamus,0.54 ± 0.24 h
same,T½,[3]; Hypothalamus,1.18 ± 0.26 h
same,AUC0-t_D,[3]; Striatum,"123.81 ± 4.90 h × ng/g/mg, h × ng/mL/mg"
same,MRTQ-t,[3]; Striatum,6.75 ± 0.68 h
same,Tmax,[3]; Striatum,0.14 ± 0.09 h
same,T½,[3]; Striatum,3.45 ± 0.93 h
same,tumor growth suppression,"[4]; all mutant-KRAS-expressing animal models, started at day 9",significant suppression from day 10-14
same,relapse,[4]; for 6-8 months,no evidence of relapse
same,reduction in tumor growth,[4]; within 28 days,95%
same,"IC50 values, cancer cells and stem cells viability","[5]; KRAS G12D, G12V and G12C cell lines, 24 h",nanomolar concentration
same,"IC50 values, cancer cell viability",[5]; panel of 30+ cell lines with WT KRAS or known KRAS mutations,micromolar to nanomolar concentrations
same,GTP binding affinity in wild type KRAS,wild-type (WT) KRAS; wild type KRAS,no effect on GTP binding affinity
same,effect on GTP-KRAS in cells with wild-type KRAS,wild-type (WT) KRAS; wild-type (WT) KRAS cells,no effect was observed
same,number of cancer cells compared against AMG510 and MRTX849,[6],significant reduction in the number of cancer cells
same,binding affinity to KRAS,KRAS,nanomolar binder
same,binding affinity to KRAS,KRAS; listed as Compound I,good binding affinity
same,expression of p53,p53,upregulating the expression of p53
same,toxicity to BRCA 1/2-deficient cells,BRCA 1/2-deficient cells,specifically toxic
same,tumor growth,tumor xenograft,inhibited tumor growth
same,PD-L1 expression,PD-L1,suppresses PD-L1 expression

# — patent US20230202981A1, “NOVEL SMALL MOLECULES FOR TARGETED DEGRADATION OF UNTARGETABLE KRAS IN CANCER THERAPY” (Pillai Universal LLC, priority 2020, published 2023)
